Data from paper PMC11606974, “Stereoselective chemical N-glycoconjugation of amines via CO2 incorporation” (Nature Communications, 2024).
pIC50: −log10 of the molar value.

Legend:
[1] = tested on: HEK-293T cells; assay: Cell viability assay (CCK-8, 72 h); conditions: Homo sapiens, read-out: HEK-293T IC50 (growth inhibition)
[2] = tested on: SK-MEL-28 cells; assay: Cell viability assay (CCK-8, 72 h); conditions: Homo sapiens, SK-MEL-28, 72 h, read-out: SK-MEL-28 IC50 (growth inhibition)
[3] = tested on: SNU-5 cells; assay: Cell viability assay (CCK-8, 72 h); conditions: Homo sapiens, SNU-5, 72 h, read-out: SNU-5 IC50 (growth inhibition)
[4] = target: ALK (kinase domain, 1068–1410) (Homo sapiens, UniProt Q9UM73); assay: Enzymatic inhibition assay, ATP hydrolysis (Kinase-Glo luminescent kit)
[5] = Pharmacokinetic analysis of crizotinib glucosides after oral gavage, plasma LC/MS/MS; assay type: in vivo, male C57 mice
[6] = tested on: cancer cells; design: method as in PMID 25184545; conditions: compared with deglycoBLM (6); cited from earlier work
[7] = mouse, plasma, oral GA95 91.6 mg/kg, male C57 mice, analyte Glycolcrizotinib

Sequence of ALK (kinase domain, 1068–1410) (Q9UM73 1068-1410): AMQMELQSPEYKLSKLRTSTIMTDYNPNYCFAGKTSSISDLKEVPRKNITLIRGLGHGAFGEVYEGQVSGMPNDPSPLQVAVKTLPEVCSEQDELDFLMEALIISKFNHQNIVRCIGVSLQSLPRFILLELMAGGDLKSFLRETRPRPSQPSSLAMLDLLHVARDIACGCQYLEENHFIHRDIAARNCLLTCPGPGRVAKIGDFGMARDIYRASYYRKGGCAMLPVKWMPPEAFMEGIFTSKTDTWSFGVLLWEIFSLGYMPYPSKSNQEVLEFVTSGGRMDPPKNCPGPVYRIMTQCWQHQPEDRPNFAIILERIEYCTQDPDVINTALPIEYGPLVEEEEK

SMILES | pIC50 [1] | pIC50 [2] | pIC50 [3] | pIC50 [4] | half-life ([5]; mouse, plasma, oral GA95 91.6 mg/kg, male C57 mice, analyte GA95) | AUC(0-inf) [5, 7] | AUC(0-t) [5, 7] | Cmax [5, 7] | MRT [5, 7] | Tmax [5, 7] | plasma concentration of crizotinib after oral application of the glucoside ([5]; oral GA95, male C57 mice, compared with the crizotinib group) | cytotoxic activity [6]
C[C@@H](Oc1cc(-c2cnn(C3CCNCC3)c2)cnc1N)c1c(Cl)ccc(F)c1Cl [Crizotinib, reference compound] | 5.22 | 5.22 | 7.82 |  |  |  |  |  |  |  |  | 
CC(=O)OC[C@H]1O[C@@H](OC(=O)N2CCC(n3cc(-c4cnc(N)c(O[C@H](C)c5c(Cl)ccc(F)c5Cl)c4)cn3)CC2)[C@H](OC(C)=O)[C@@H](OC(C)=O)[C@@H]1OC(C)=O [GA89] | 5.30 | 5.30 | 7.35 | 5.96 |  |  |  |  |  |  |  | 
C[C@@H](Oc1cc(-c2cnn(C3CCN(C(=O)O[C@@H]4O[C@H](CO)[C@@H](O)[C@H](O)[C@H]4O)CC3)c2)cnc1N)c1c(Cl)ccc(F)c1Cl [GA95] | 4.60 | 4.60 | 7.66 | 6.52 | 43.6 min | 0.0426 µg·h/mL | 0.0376 µg·h/mL | 0.0336 µg/mL | 64.8 min | 15 min | quickly increased to the similar level as the crizotinib group | 
Cc1c(N)nc([C@H](CC(N)=O)NC[C@H](N)C(N)=O)nc1C(=O)N[C@H](C(=O)N[C@H](C)[C@@H](O)[C@H](C)C(=O)N[C@H](C(=O)NCCc1nc(-c2nc(C(=O)NCCCNCCCCNC(=O)OC3O[C@@H](CO)[C@@H](O)[C@H](O)[C@@H]3O[C@H]3O[C@H](CO)[C@@H](O)[C@H](OC(N)=O)[C@@H]3O)cs2)cs1)[C@@H](C)O)[C@@H](O)c1c[nH]cn1 (stereo partly shown) [compound 5] |  |  |  |  |  |  |  |  |  |  |  | significantly more potent cytotoxic activity than deglycoBLM (6)
